Source: PubChem BioAssay (NCI)
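Each compound was tested at five concentrations against cells in 96-well plates for 48 hours. Here, GI50 denotes the concentration required for 50% inhibition of growth. Definition used: TGI = concentration required for complete inhibition of growth.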

How the values were obtained:
Experiment in all cases: NCI-60 cell line screen, 48 h
HCT-15 colon = tested on: HCT-15 colon
SK-MEL-2 melanoma = tested on: SK-MEL-2 melanoma
RPMI-8226 leukemia = tested on: RPMI-8226 leukemia
NCI-H23 lung = tested on: NCI-H23 lung
SK-MEL-28 melanoma = tested on: SK-MEL-28 melanoma
SF-539 CNS = tested on: SF-539 CNS
MALME-3M melanoma = tested on: MALME-3M melanoma
SW-620 colon = tested on: SW-620 colon
UACC-62 melanoma = tested on: UACC-62 melanoma
MCF7 breast = tested on: MCF7 breast
SN12C renal = tested on: SN12C renal
MDA-MB-435 = tested on: MDA-MB-435
OVCAR-3 ovarian = tested on: OVCAR-3 ovarian
SR leukemia = tested on: SR leukemia
HT29 colon = tested on: HT29 colon
SK-OV-3 ovarian = tested on: SK-OV-3 ovarian
COLO 205 colon = tested on: COLO 205 colon
UO-31 renal = tested on: UO-31 renal
UACC-257 melanoma = tested on: UACC-257 melanoma
RXF 393 renal = tested on: RXF 393 renal
EKVX NSCLC = tested on: EKVX NSCLC
A498 renal = tested on: A498 renal
K-562 leukemia = tested on: K-562 leukemia
HOP-62 NSCLC = tested on: HOP-62 NSCLC
MDA-MB-231 breast = tested on: MDA-MB-231 breast
MOLT-4 leukemia = tested on: MOLT-4 leukemia
SF-295 CNS = tested on: SF-295 CNS
HL-60(TB) leukemia = tested on: HL-60(TB) leukemia
NCI-H226 lung = tested on: NCI-H226 lung
NCI-H522 lung = tested on: NCI-H522 lung
KM12 colon = tested on: KM12 colon
IGROV1 ovarian = tested on: IGROV1 ovarian
ACHN renal = tested on: ACHN renal
HOP-92 NSCLC = tested on: HOP-92 NSCLC
U251 CNS = tested on: U251 CNS
OVCAR-4 ovarian = tested on: OVCAR-4 ovarian
LOX IMVI melanoma = tested on: LOX IMVI melanoma
OVCAR-8 ovarian = tested on: OVCAR-8 ovarian
786-0 renal = tested on: 786-0 renal
DU-145 prostate = tested on: DU-145 prostate
HCT-116 colon = tested on: HCT-116 colon
A549 NSCLC = tested on: A549 NSCLC
NCI-H460 lung = tested on: NCI-H460 lung
SNB-75 CNS = tested on: SNB-75 CNS
T-47D breast = tested on: T-47D breast
OVCAR-5 ovarian = tested on: OVCAR-5 ovarian
SK-MEL-5 melanoma = tested on: SK-MEL-5 melanoma
NCI/ADR-RES ovarian = tested on: NCI/ADR-RES ovarian
M14 melanoma = tested on: M14 melanoma
TK-10 renal = tested on: TK-10 renal
BT-549 breast = tested on: BT-549 breast
HCC-2998 colon = tested on: HCC-2998 colon
SF-268 CNS = tested on: SF-268 CNS
HS 578T breast = tested on: HS 578T breast
PC-3 prostate = tested on: PC-3 prostate
SNB-19 CNS = tested on: SNB-19 CNS
CCRF-CEM leukemia = tested on: CCRF-CEM leukemia
CAKI-1 renal = tested on: CAKI-1 renal

In the case of `NC(=O)c1c(NC(=O)c2ccc(C3CCCCC3)cc2)sc2c1CCC(=O)C2`, the GI50 (HCT-15 colon) is reported as 155 nM, the TGI (HCT-15 colon) is reported as 1260 nM and the GI50 (SK-MEL-2 melanoma) is reported as 980 nM. The TGI (SK-MEL-2 melanoma) was 3530 nM, the GI50 (RPMI-8226 leukemia) was 135 nM and the TGI (RPMI-8226 leukemia) was 596 nM. For the same molecule, the GI50 (NCI-H23 lung) was 314 nM, the TGI (NCI-H23 lung) was 4340 nM and the GI50 (SK-MEL-28 melanoma) was 509 nM. The TGI (SK-MEL-28 melanoma) was 2150 nM, the GI50 (SF-539 CNS) was 211 nM and the TGI (SF-539 CNS) was 826 nM. It also gave a GI50 (MALME-3M melanoma) of 314 nM, a TGI (MALME-3M melanoma) of 1190 nM and a GI50 (SW-620 colon) of 142 nM. The TGI (SW-620 colon) was 1660 nM, the GI50 (UACC-62 melanoma) was 276 nM and the TGI (UACC-62 melanoma) was 1430 nM. For the same molecule, the GI50 (MCF7 breast) was 292 nM, the TGI (MCF7 breast) was 2530 nM and the GI50 (SN12C renal) was 438 nM. For the same molecule, the TGI (SN12C renal) was 2830 nM, the GI50 (MDA-MB-435) was 611 nM and the TGI (MDA-MB-435) was 2170 nM. For the same molecule, the GI50 (OVCAR-3 ovarian) was 389 nM, the TGI (OVCAR-3 ovarian) was 2620 nM and the GI50 (SR leukemia) was 108 nM. The GI50 (HT29 colon) was 268 nM, the TGI (HT29 colon) was 1810 nM and the GI50 (SK-OV-3 ovarian) was 1180 nM. For the same molecule, the TGI (SK-OV-3 ovarian) was 5890 nM, the GI50 (COLO 205 colon) was 208 nM and the TGI (COLO 205 colon) was 650 nM. It also gave a GI50 (UO-31 renal) of 177 nM, a TGI (UO-31 renal) of 690 nM and a GI50 (UACC-257 melanoma) of 725 nM. It also gave a TGI (UACC-257 melanoma) of 3230 nM, a GI50 (RXF 393 renal) of 301 nM and a TGI (RXF 393 renal) of 1190 nM. It also gave a GI50 (EKVX NSCLC) of 502 nM, a TGI (EKVX NSCLC) of 3210 nM and a GI50 (A498 renal) of 1990 nM. For the same molecule, the TGI (A498 renal) was 5840 nM, the GI50 (K-562 leukemia) was 122 nM and the TGI (K-562 leukemia) was greater than 100000 nM. The GI50 (HOP-62 NSCLC) was 1480 nM, the TGI (HOP-62 NSCLC) was 24100 nM and the GI50 (MDA-MB-231 breast) was 384 nM. It also gave a TGI (MDA-MB-231 breast) of 1750 nM, a GI50 (MOLT-4 leukemia) of 357 nM and a TGI (MOLT-4 leukemia) greater than 22400 nM. For the same molecule, the GI50 (SF-295 CNS) was 681 nM, the TGI (SF-295 CNS) was 2500 nM and the GI50 (HL-60(TB) leukemia) was 307 nM. The TGI (HL-60(TB) leukemia) was greater than 30800 nM, the GI50 (NCI-H226 lung) was 705 nM and the TGI (NCI-H226 lung) was 2610 nM. The GI50 (NCI-H522 lung) was 227 nM, the TGI (NCI-H522 lung) was 1450 nM and the GI50 (KM12 colon) was 349 nM. It also gave a TGI (KM12 colon) of 5260 nM, a GI50 (IGROV1 ovarian) of 434 nM and a TGI (IGROV1 ovarian) of 2030 nM. The GI50 (ACHN renal) was 164 nM, the TGI (ACHN renal) was 598 nM and the GI50 (HOP-92 NSCLC) was 246 nM. It also gave a TGI (HOP-92 NSCLC) of 1040 nM, a GI50 (U251 CNS) of 246 nM and a TGI (U251 CNS) of 1620 nM. For the same molecule, the GI50 (OVCAR-4 ovarian) was 377 nM, the TGI (OVCAR-4 ovarian) was 1710 nM and the GI50 (LOX IMVI melanoma) was 186 nM. The TGI (LOX IMVI melanoma) was 1010 nM, the GI50 (OVCAR-8 ovarian) was 380 nM and the TGI (OVCAR-8 ovarian) was greater than 20200 nM. It also gave a GI50 (786-0 renal) of 663 nM, a TGI (786-0 renal) of 2870 nM and a GI50 (DU-145 prostate) of 1730 nM. For the same molecule, the TGI (DU-145 prostate) was greater than 100000 nM, the GI50 (HCT-116 colon) was 108 nM and the TGI (HCT-116 colon) was 1300 nM. For the same molecule, the GI50 (A549 NSCLC) was 419 nM, the TGI (A549 NSCLC) was 6080 nM and the GI50 (NCI-H460 lung) was 645 nM. For the same molecule, the TGI (NCI-H460 lung) was 3640 nM, the GI50 (SNB-75 CNS) was 1390 nM and the TGI (SNB-75 CNS) was 3420 nM. The GI50 (T-47D breast) was 193 nM, the TGI (T-47D breast) was 2340 nM and the GI50 (OVCAR-5 ovarian) was 402 nM. For the same molecule, the TGI (OVCAR-5 ovarian) was 1980 nM, the GI50 (SK-MEL-5 melanoma) was 630 nM and the TGI (SK-MEL-5 melanoma) was 1770 nM. The GI50 (NCI/ADR-RES ovarian) was 360 nM, the TGI (NCI/ADR-RES ovarian) was 5040 nM and the GI50 (M14 melanoma) was 371 nM. For the same molecule, the TGI (M14 melanoma) was 1870 nM, the GI50 (TK-10 renal) was 373 nM and the TGI (TK-10 renal) was 2300 nM. For the same molecule, the GI50 (BT-549 breast) was 283 nM, the TGI (BT-549 breast) was 1390 nM and the GI50 (HCC-2998 colon) was 1100 nM. It also gave a TGI (HCC-2998 colon) of 5410 nM, a GI50 (SF-268 CNS) of 532 nM and a TGI (SF-268 CNS) of 3460 nM. For the same molecule, the GI50 (HS 578T breast) was 383 nM, the TGI (HS 578T breast) was 5710 nM and the GI50 (PC-3 prostate) was 130 nM. The TGI (PC-3 prostate) was 1590 nM, the GI50 (SNB-19 CNS) was 426 nM and the TGI (SNB-19 CNS) was 3010 nM. For the same molecule, the GI50 (CCRF-CEM leukemia) was 142 nM, the GI50 (CAKI-1 renal) was 248 nM and the TGI (CAKI-1 renal) was 1470 nM.
